Activity calls are given as the source filed them. The calls are words filed in the database; no cut-off is given here.

A short description of series [1]: Half life in human serum. Type of series: ADME, cell-free.
Series [2] has as its target T1, Mu-type opioid receptor (Homo sapiens, UniProt P35372). The experiment in a line: Displacement of [3H]DAMGO from human recombinant mu-opioid receptor expressed in CHO cells after 60 mins by liquid scintillation assay. Type of series: cell-based.
The target of series [3] is T1, Mu-type opioid receptor. The experiment in a line: Agonist activity at human recombinant mu-opioid receptor expressed in CHO cells after 60 mins by [35S]GTPgammaS binding assay. Type of series: functional, cell-based.

T1 sequence (P35372 whole entry): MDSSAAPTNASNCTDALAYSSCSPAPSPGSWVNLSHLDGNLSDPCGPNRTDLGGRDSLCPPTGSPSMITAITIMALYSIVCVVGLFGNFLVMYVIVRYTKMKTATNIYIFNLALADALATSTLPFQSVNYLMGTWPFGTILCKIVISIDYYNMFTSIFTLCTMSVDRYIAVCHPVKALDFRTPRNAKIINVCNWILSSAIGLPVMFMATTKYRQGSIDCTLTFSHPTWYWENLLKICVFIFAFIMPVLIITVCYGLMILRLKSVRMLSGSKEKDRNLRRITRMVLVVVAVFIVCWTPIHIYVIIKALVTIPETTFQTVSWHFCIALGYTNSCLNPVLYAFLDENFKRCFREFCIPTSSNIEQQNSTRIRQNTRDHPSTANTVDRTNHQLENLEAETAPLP

Molecule `CC(C)C[C@H](CN(C=O)[C@H](Cc1ccccc1)CN(C=O)CCN(C=O)CCN(C=O)[C@@H](CN)Cc1ccc(O)cc1)NS(C)(=O)=O` gave a half-life in series [1] of 41 h. Further, on Mu-type opioid receptor [2], the 50% inhibitory concentration (IC50) stood at 3200 nM and the Ki was 400 nM. For the same molecule, the result on Mu-type opioid receptor [3] was inactive.

(Values after ChEMBL document CHEMBL2157908, “Formylated polyamines as peptidomimetics” (Bioorg Med Chem Lett, 2012).)
